Assay results as given in patent US20250230146A1, “CARBOCYCLIC NUCLEOSIDE, OLIGONUCLEOTIDE AND PREPARATION METHODS THEREFOR AND MEDICAL USES THEREOF” (REDFIELD PHARMACEUTICAL INC., priority 2023, published 2025).

Key:
[1] = system: sense strand (5′-AAAAAAAAAA-3′; SEQ ID NO: 4); assay: Melting temperature (Tm) test of antisense strand annealed with sense strand; details: duplex with sense strand 5′-AAAAAAAAAA-3′; UV absorption at 260 nm
Method: A mixture of 1 mL of the sense strand (0.5 OD/mL) and 1 mL of the antisense strand (0.5 OD/mL) was mixed and stirred evenly, heated at 90° C. for 10 min, and then cooled to room temperature. A Tm value of the sample was measured using an ultraviolet spectrophotometer (Agilent, Cary 3500 UV-Vis), the sample was placed in a cuvette with a cap and a temperature probe, a temperature was set to be raised from 20-25° C. to 70-80° C. at a rate of 0.5° C. or 1.0° C. per minute, and ultraviolet absorption at 260 nm was measured at an interval of 0.5° C.

[2] = system: snake venom phosphodiesterase (Crotalus admanteus venom phosphodiesterase (CAVP))

In the case of “5′-TTTTTTTTTT-3′ [Control antisense strand]”, the Tm [1] is reported as 43 °C and the “degradation by nuclease (in words)” value [2] is reported as “almost completely degraded”.
